The subject of assay [1] is Dup15q patient-derived induced pluripotent cells. The conditions noted are these: Fink et al., 2018; cited from earlier work.
For another assay, the system named is ALS patients. The conditions noted are these: clinical trials in ALS; Wainger et al., 2021; cited from earlier work.
Another assay has as its system peripheral neuropathy. Conditions: preclinical; Nodera et al., 2011; cited from earlier work.
The subject of assay [2] is preclinical models of tinnitus. Conditions: Li, Choi and Tzounopoulos, 2013; cited from earlier work.
For the next assay, the system named is spreading depression. The conditions noted are these: Aiba and Noebels, 2021; cited from earlier work.
For assay [3], the system named is Patient-derived motor neurons. The conditions noted are these: ALS patient-derived motor neurons; Wainger et al., 2014; cited from earlier work.
The next assay relates to patients. The conditions noted are these: MDD patients; Tan et al., 2018; cited from earlier work.
Another assay deals with pain models. Conditions: Korsgaard et al., 2005; Xu et al., 2010; Wu et al., 2017; cited from earlier work.
Another assay addresses T1, human Kv7.2 (Homo sapiens, UniProt O43526).
T1 construct: expressed in transfected cells
Description: activation (potentiation) of Kv7.2 current, SyncroPatch 384 electrophysiology in CHO cells stably expressing human Kv7.2. It counts as cell-based. The conditions noted are these: human Kv7.2 in CHO cells; in presence of 5.6 μM zinc pyrithione; % activation relative to 30 μM ML-213. The method in brief:
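CHO cells stably expressing human Kv7.2 were recorded by automated patch clamp, holding at −60 mV with steps to −30, 40 and −90 mV; current was read at the −90 mV step. Compounds were added after 5.6 μM zinc pyrithione pre-activation. % activation was normalised between 30 μM ML-213 (max) and TEA+XE-991 (leak), with EC50 from a logistic fit.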
A general note: The patch-clamp technique gives a direct electrical read-out from membranes.

Broadly, the EC50 is the concentration at which the effect is half-maximal.

T1 sequence (O43526 whole entry): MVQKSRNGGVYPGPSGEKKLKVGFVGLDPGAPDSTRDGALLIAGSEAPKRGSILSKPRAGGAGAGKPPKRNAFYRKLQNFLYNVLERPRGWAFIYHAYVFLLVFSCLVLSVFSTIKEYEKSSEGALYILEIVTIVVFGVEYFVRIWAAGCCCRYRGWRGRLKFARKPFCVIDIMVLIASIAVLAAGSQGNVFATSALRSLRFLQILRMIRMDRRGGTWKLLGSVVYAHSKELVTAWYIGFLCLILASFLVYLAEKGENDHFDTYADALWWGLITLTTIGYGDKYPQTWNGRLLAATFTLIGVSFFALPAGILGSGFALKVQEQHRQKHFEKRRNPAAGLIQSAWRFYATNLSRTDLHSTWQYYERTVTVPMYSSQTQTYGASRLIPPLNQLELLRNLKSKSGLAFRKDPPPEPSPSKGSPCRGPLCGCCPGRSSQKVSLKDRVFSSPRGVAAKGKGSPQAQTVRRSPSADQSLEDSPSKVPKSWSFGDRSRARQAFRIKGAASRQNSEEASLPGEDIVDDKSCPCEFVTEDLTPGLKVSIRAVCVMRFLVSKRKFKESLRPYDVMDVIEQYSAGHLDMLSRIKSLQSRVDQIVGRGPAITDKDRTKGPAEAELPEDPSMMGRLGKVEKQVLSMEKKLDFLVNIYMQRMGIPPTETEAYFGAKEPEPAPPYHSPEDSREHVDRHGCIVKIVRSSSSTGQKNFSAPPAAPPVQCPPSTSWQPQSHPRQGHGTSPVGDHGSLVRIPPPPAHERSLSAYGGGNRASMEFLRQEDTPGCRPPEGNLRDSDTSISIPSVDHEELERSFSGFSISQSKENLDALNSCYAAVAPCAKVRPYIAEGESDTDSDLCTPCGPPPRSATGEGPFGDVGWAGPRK

For `CCOC(=O)Nc1ccc(NCc2ccc(F)cc2)cc1N` [Retigabine], the effect on phenotype entry in [1] was “partially corrects their phenotype”. Further, the “efficacy on functional biomarkers of ALS” value in the assay with ALS patients was “showed efficacy on functional biomarkers of ALS”. Also, the “protection against peripheral neuropathy” value with peripheral neuropathy was “protects against peripheral neuropathy”. Further, in assay [2], the “prevention of the development of tinnitus” value is reported as “prevents the development of tinnitus in preclinical models”. In addition, in the assay on spreading depression, the “efficacy in controlling spreading depression” value was “shows efficacy in controlling spreading depression”. Also, the “rescue of membrane hyperexcitability phenotype” value in [3] was “rescues the phenotype”. Further, in the assay with patients, the antidepressant efficacy result was “showed antidepressant efficacy in patients” and the “reduction in depressive symptoms” value was “significant reduction in depressive symptoms”. The “efficacy in preclinical pain models” value in the assay with pain models is on record as “some efficacy in preclinical pain models”.
Turning to `O=C(NC[C@]1(c2cccc(Cl)c2)OCC1(F)F)[C@H]1C[C@@H]1c1ccccc1` (stereo in doubt) [Example 42, (1S,2S)-N-[[(2S)-2-(3-chlorophenyl)-3,3-difluoro-oxetan-2-yl]methyl]-2-phenyl-cyclopropanecarboxamide], at human Kv7.2, the concentration for a half-maximal effect (EC50) came out at 0.63 µM.
In the case of `N#CCO[C@H](CNC(=O)[C@H]1C[C@@H]1c1ccccc1)c1cccc(Cl)c1` [Example 70, (1S,2S)—N-[(2S)-2-(3-chlorophenyl)-2-(cyanomethoxy)ethyl]-2-phenyl-cyclopropanecarboxamide], the 50% effective concentration (EC50) at human Kv7.2 came out at 0.65 µM.
Same read-out and setting: next, `COC(C)(CNC(=O)NCc1cccs1)c1cccc(Cl)c1` (centres unmarked) [Example 33, 1-[2-(3-chlorophenyl)-2-methoxy-propyl]-3-(2-thienylmethyl)urea]: 1.86 µM; `N#Cc1cc(C2(CNC(=O)[C@H]3C[C@@H]3c3ccccc3)CCO2)ccc1F` (stereo partly drawn) [Example 125, (1S,2S)—N-[[2-(3-cyano-4-fluoro-phenyl)oxetan-2-yl]methyl]-2-phenyl-cyclopropanecarboxamide]: 2.19 µM.
As to `O=C(NCC1(c2cccc(Cl)n2)CCO1)[C@H]1C[C@@H]1c1ccccc1` (stereo partly drawn) [Example 76, (1S,2S)—N-[[2-(6-chloro-2-pyridyl)oxetan-2-yl]methyl]-2-phenyl-cyclopropanecarboxamide], the EC50 on human Kv7.2 is 1.74 µM.
On the same count and under the same terms, next, `COC(C)(CNC(=O)NC1CCCC1)c1cccc(Cl)c1` (centres unmarked) [Example 3, 1-[2-(3-chlorophenyl)-2-methoxy-propyl]-3-cyclopentyl-urea]: 2.34 µM; `COC(C)(CNC(=O)C1CC1c1ccc(Cl)cc1)c1cccc(Cl)c1` (centres unmarked) [Example 44, 2-(4-chlorophenyl)-N-[2-(3-chlorophenyl)-2-methoxy-propyl]cyclopropanecarboxamide]: 0.9 µM; `N#Cc1cccc([C@@]2(CNC(=O)CC3CC4CCC3C4)CCO2)c1` (stereo partly drawn) [Example 97, N-[[(2R)-2-(3-cyanophenyl)oxetan-2-yl]methyl]-2-norboman-2-yl-acetamide]: 1.28 µM.
The same measure, in the same setting: as for `N#Cc1cccc([C@@]2(CNC(=O)[C@H]3C[C@@H]3c3ccccc3)CCO2)c1` [Example 55, (1S,2S)-N-[[(2R)-2-(3-cyanophenyl)oxetan-2-yl]methyl]-2-phenyl-cyclopropanecarboxamide], the figure is 0.79 µM; as for `O=C(NC(CO)C1(c2cccc(Cl)c2)CC1)[C@H]1C[C@@H]1c1ccccc1` (stereo partly drawn) [Example 86, (1S,2S)—N-[1-[1-(3-chlorophenyl)cyclopropyl]-2-hydroxy-ethyl]-2-phenyl-cyclopropanecarboxamide], 5.62 µM.
Still for that read-out and setting: as for `CC(C#N)(CNC(=O)[C@H]1C[C@@H]1c1ccccc1)c1cccc(Cl)c1` (mixture of isomers) [Example 37, rac-(1S,2S)-N-[2-(3-chlorophenyl)-2-cyano-propyl]-2-phenyl-cyclopropanecarboxamide], the figure is 1.32 µM.
For the molecule `COC(C)(CNC(=O)NCc1ccco1)c1cccc(Cl)c1` (centres unmarked) [Example 9, 1-[2-(3-chlorophenyl)-2-methoxy-propyl]-3-(2-furylmethyl)urea], at human Kv7.2, the EC50 turned out to be 2.46 µM.
On the same count and under the same terms, as for `COC(C)(CNC(=O)NCc1cccc(F)c1)c1cccc(Cl)c1` (centres unmarked) [Example 10, 1-[2-(3-chlorophenyl)-2-methoxy-propyl]-3-[(3-fluorophenyl)methyl]urea], the figure is 0.76 µM.
Regarding `O=C(NCC1(c2cccc(OC(F)F)n2)CCO1)[C@H]1C[C@@H]1c1ccccc1` (stereo partly drawn) [Example 99, (1S,2S)—N-[[2-[6-(difluoromethoxy)-2-pyridyl]oxetan-2-yl]methyl]-2-phenyl-cyclopropanecarboxamide], the concentration for a half-maximal effect (EC50) at human Kv7.2 turned out to be 0.23 µM.
Same read-out and setting: as for `O=C(NCC1(c2cccc(Cl)c2)CCO1)C1CC2(CCC2)C1` (centres unmarked) [Example 64, N-[[2-(3-chlorophenyl)oxetan-2-yl]methyl]spiro[3.3]heptane-2-carboxamide], the figure is 2.75 µM.
On the same count and under the same terms, as for `COC(C)(CNC(=O)NCc1cccc(C)c1)c1cccc(Cl)c1` (centres unmarked) [Example 11, 1-[2-(3-chlorophenyl)-2-methoxy-propyl]-3-(m-tolylmethyl)urea], the figure is 1.43 µM; as for `[2H]C([2H])([2H])OC(C)(CNC(=O)NC1CCCC1)c1cccc(Cl)c1` (centres unmarked) [Example 26, 1-[2-(3-chlorophenyl)-2-(trideuteriomethoxy)propyl]-3-cyclopentyl-urea], 4.01 µM.
For `CC(C#N)(CNC(=O)[C@H]1C[C@@H]1c1ccccc1)c1cccc(C(F)(F)F)c1` (mixture of isomers) [Example 31, rac-(1S,2S)-N-[2-cyano-2-[3-(trifluoromethyl)phenyl]propyl]-2-phenyl-cyclopropanecarboxamide], the 50% effective concentration (EC50) on human Kv7.2 came out at 2.49 µM.
On the same count and under the same terms, as for `COC(C)(CNC(=O)NCC1CCCC1)c1cccc(Cl)c1` (single isomer, unassigned) [Example 71], the figure is 0.53 µM; as for `O=C(NCC1(c2ccnc(OC(F)F)c2)CCO1)[C@H]1C[C@@H]1C(F)(F)F` (stereo partly drawn) [Example 129, (1S,2S)—N-[[2-[2-(difluoromethoxy)-4-pyridyl]oxetan-2-yl]methyl]-2-(trifluoromethyl)cyclopropanecarboxamide], 4.24 µM; as for `COC(C)(CNC(=O)NC1CC=CC1)c1cccc(Cl)c1` (centres unmarked) [Example 30, 1-[2-(3-chlorophenyl)-2-methoxy-propyl]-3-cyclopent-3-en-1-yl-urea], 3.27 µM.
Same read-out and setting: as for `N#Cc1cccc([C@]2(CNC(=O)C3CC3C3CCC(F)(F)CC3)CCO2)c1` (stereo partly drawn) [Example 136, N-[[(2S)-2-(3-cyanophenyl)oxetan-2-yl]methyl]-2-(4,4-difluorocyclohexyl)cyclopropanecarboxamide], the figure is 0.4 µM; as for `CO[C@@](C)(CNC(=O)[C@H]1C[C@@H]1c1cccnc1)c1cccc(Cl)c1` (mixture of isomers) [Example 48, (1SR,2SR)-N-[(2R)-2-(3-chlorophenyl)-2-methoxy-propyl]-2-(3-pyridyl)cyclopropanecarboxamide], 9.61 µM.
